In publication PMC5289641, “Bioactivity of a modified human Glucagon-like peptide-1” (PLoS ONE, 2017):
Like-named read-outs stand apart in the source and are kept apart here. Where no end group is shown, it is not given here.

Columns and labels:
[1] = system: Mouse insulinoma cells (MIN6); conditions: 48 h, CCK-8, OD450
Method: Mouse insulinoma cells (MIN6) (iCell Bioscience, Inc. Shanghai, China) were cultured in a 25 cm^2 cell culture flasks and then seeded into 96-well microplates at a density of 6.0×10^4 cells per well for the cell proliferation assay. […] After 48 h of incubation, 10 μL CCK-8 solution (cell counting kit, Dojindo China Co., Ltd. Shanghai, China) was gently mixed into the culture and the culture was further incubated for 1 to 4 hours. A microplate reader (Bio-Rad, USA) was used to measure cell viability at a 450 nm wavelength (OD450). The cell viability ratio (CRV) was calculated as (A-A0)/A0 × 100% (where A was the absorbance of the treated cell culture and A0 was the OD450 value of a blank (RPMI 1640 medium only)).
Fig 3 Mouse pancreatic β cell proliferation (A), RT-qPCR analysis of gene expression (B), and insulin secretion (C). MIN6 cells were seeded into flat-bottomed 96-well microtiter plates at a density of 6.0×10^4 cells per well. […] The control was cell cultures treated with DPBS only. […] The controls were cells incubated with just DPBS in the presence of 10mM glucose. Cell culture supernatants were collected and insulin concentration determined using a mouse insulin ELISA kit (JiNingShiYe Ltd. Shanghai, China). Data shown represent the mean ±SD (n = 6). Different letters or (*) indicate significant difference at p<0.05.

trypsin = conditions: peptide 10 mg/mL, trypsin 4 mg/mL, PBS pH 7.4, 37°C, SDS-PAGE with silver staining
Method: (§1) Samples (20 μL) treated with either trypsin or pepsin for different lengths of time were then mixed with SDS-PAGE loading buffer (2×), heated at 100°С for 10 min, and then analyzed with SDS-PAGE. Protein bands on the gels were visualized by silver staining.
(§2) The reaction solutions were sampled at different time points and analyzed by SDS-PAGE. […] Negative control is trypsin only.

pepsin = pepsin (Sus scrofa, UniProt P00791); conditions: peptide 1 mg/mL, pepsin 2 mg/mL, HCl solution pH 1.5~2.0, 37°C, SDS-PAGE with silver staining
pepsin, sequence (P00791 60-385): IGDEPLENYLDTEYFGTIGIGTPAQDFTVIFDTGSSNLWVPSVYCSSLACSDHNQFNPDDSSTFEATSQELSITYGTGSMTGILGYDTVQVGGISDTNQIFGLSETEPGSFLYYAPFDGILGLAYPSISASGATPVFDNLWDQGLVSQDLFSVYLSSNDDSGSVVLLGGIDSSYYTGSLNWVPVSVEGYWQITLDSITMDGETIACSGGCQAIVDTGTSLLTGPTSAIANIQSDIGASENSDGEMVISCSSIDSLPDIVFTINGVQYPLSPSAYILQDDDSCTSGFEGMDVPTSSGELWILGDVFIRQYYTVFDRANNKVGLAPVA
Method: as §1, §2

pancreatin = conditions: peptide 2.5 mg/mL, pancreatin 1.0 mg/mL, PBS pH 7.4, 37°C, SDS-PAGE with silver staining

Compound	Cell viability ratio (CRV) ([1]; 0.3 μM peptide) [%]	Cell viability ratio (CRV) ([1]; 3 μM peptide) [%]	Cell viability ratio (CRV) ([1]; 15 μM peptide) [%]	State after 8 h incubation with trypsin (trypsin; 8 h)	Time to degradation by pepsin (pepsin) [min]	State after 5 min with pancreatin (pancreatin)	State after 15 min in pancreatin (pancreatin)	Resistance to trypsin cleavage relative to native GLP-1 (trypsin)	Time resistant to trypsin cleavage (trypsin)	Resistance to pancreatin cleavage relative to native GLP-1 (pancreatin)
CC[C@H](C)[C@H](NC(=O)[C@H](Cc1ccccc1)NC(=O)[C@H](CCC(=O)O)NC(=O)[C@H](CCCCN)NC(=O)[C@H](C)NC(=O)[C@H](C)NC(=O)[C@H](CCC(N)=O)NC(=O)CNC(=O)[C@H](CCC(=O)O)NC(=O)[C@H](CC(C)C)NC(=O)[C@H](Cc1ccc(O)cc1)NC(=O)[C@H](CO)NC(=O)[C@H](CO)NC(=O)[C@@H](NC(=O)[C@H](CC(=O)O)NC(=O)[C@H](CO)NC(=O)[C@@H](NC(=O)[C@H](Cc1ccccc1)NC(=O)[C@@H](NC(=O)CNC(=O)[C@H](CCC(=O)O)NC(=O)[C@H](C)NC(=O)[C@@H](N)Cc1c[nH]cn1)[C@@H](C)O)[C@@H](C)O)C(C)C)C(=O)N[C@@H](C)C(=O)N[C@@H](Cc1c[nH]c2ccccc12)C(=O)N[C@@H](CC(C)C)C(=O)N[C@H](C(=O)N[C@@H](CCCCN)C(=O)NCC(=O)N[C@@H](CCCNC(=N)N)C(N)=O)C(C)C [GLP-1, reference compound]	15.65	23.65	58.56	completely degraded	≤ 10	quickly degraded	completely destroyed			
HGEGTFTSDVSSYLEGQAAQEFIAWLVDGR-NH2 [mGLP-1]	10.58	20.58	60.26		≤ 10	quickly degraded	faint mGLP-1 was still detectable	more resistant	up to 8 hours	more resistant
